# Source: US20220395549A1, “COMPOSITIONS OF THE OLEA EUROPAEA V. SYLVESTRIS WITH ANTIMICROBIAL EFFICACY” (TAPROGGE GMBH, priority 2019, published 2022)
# Test system: S. aureus ATCC 6538
# Assay: quantitative suspension assay of mono-substances
# Type: cell-based, Staphylococcus aureus
# Procedure: A stock solution was prepared by adding 0.1 ml methanol to 10.48 mg of hydroxytyrosol. After dissolving of the compound, the solution was quantitatively transferred into 4.9 ml water for injection (WFI), effective concentration of hydroxytyrosol: 2.0 mg/ml.
# Using the stock solution, five (5) concentrations of hydroxytyrosol in a geometric series of 2 mg hydroxytyrosol/ml to 0.125 mg hydroxytyrosol/ml were tested in a quantitative suspension assay.
# 2 ml of the stock solution and the dilutions (V1 to V4), respectively, and a methanol-solution of 2% as a positive control were inoculated with 0.1 ml of a test suspension of S. aureus ATCC 6538, adjusted to about 2.0×10^5 CFU/0.1 ml, resulting in about 100,000 CFU/ml in the individual assays.
# Samples (0.1 ml) were then taken at t 0, 12, 30, and 60 minutes as well as t 24 48, and 72 hours after inoculation and culturing at between 20-25° C., and were diluted with 0.9 ml of 0.9% NaCl solution. The samples were plated on blood agar plates, and incubated up to 5 days at between 30-35° C.
# A stock solution was prepared at a concentration of 2 mg/ml of oleocanthal. The compound was dissolved by in ethanol (99.8%) and WFI was added.
# Using the stock solution, concentrations of oleocanthal in a geometric series of 1 mg oleocanthal/ml to 0.125 mg oleocanthal/ml were tested in a quantitative suspension assay.
# 2 ml of the stock solution and the dilutions (V1 to V4), respectively, and a ethanol-solution of 2.85% as a positive control were inoculated with 0.055 ml of a test suspension of S. aureus ATCC 6538, adjusted to about 3.6×10^5 CFU/0.1 ml, resulting in about 99,000 CFU/ml in the individual assays.
# A stock solution was prepared at a concentration of 1 mg/ml of oleacin. The compound was dissolved by in ethanol (99.8%) and WFI was added.
# Using the stock solution, concentrations of oleacin at 0.25 mg oleacin/ml and 0.125 mg oleacin/ml were tested in a quantitative suspension assay.
# 2 ml of the stock solution and the dilutions (V1 and V2), respectively, and a ethanol-solution of 0.44% as a positive control were inoculated with 0.055 ml of a test suspension of S. aureus ATCC 6538, adjusted to about 3.5×10^5 CFU/0.1 ml, resulting in about 99,000 CFU/ml in the individual assays.
# A stock solution was prepared by adding 0.1 ml chloroform to 25 mg of uvaol. After dissolving of the compound, the solution was quantitatively transferred into 12.4 ml water for injection (WFI), effective concentration of uvaol: 2.0 mg/ml.
# Using the stock solution, five (5) concentrations of uvaol in a geometric series of 2 mg uvaol/ml to 0.125 mg uvaol/ml were tested in a quantitative suspension assay.
# 2 ml of the stock solution and the dilutions (V1 to V4), respectively, and a chloroform-solution of 0.8% as a positive control were inoculated with 0.1 ml of a test suspension of S. aureus ATCC 6538, adjusted to about 2.0×10^5 CFU/0.1 ml, resulting in about 100,000 CFU/ml in the individual assays.
# A stock solution was prepared by adding 0.1 ml chloroform to 10.45 mg of erythrodiol. After dissolving of the compound, the solution was quantitatively transferred into 4.9 ml water for injection (WFI), effective concentration of erythrodiol: 2.0 mg/ml.
# 2 ml of the stock solution and the dilutions (V1 to V4), respectively, and a chloroform-solution of 2% as a positive control were inoculated with 0.1 ml of a test suspension of S. aureus ATCC 6538, adjusted to about 3.6×10^5 CFU/0.1 ml, resulting in about 100.000 CFU/ml in the individual assays.
structure (smiles),measurement,setting,value
CC=C(C=O)C(CC=O)CC(=O)OCCc1ccc(O)c(O)c1 (stereo in doubt) [oleacin],Number of CFUs,"0.125 Oci/ml, t 0 min, initial cell load 9.9 × 10^4 CFU/ml",4.3 × 10^3 CFU/ml
same,Number of CFUs,"0.125 Oci/ml, t 12 min, initial cell load 9.9 × 10^4 CFU/ml",<100 CFU/ml
same,Number of CFUs,"0.125 Oci/ml, t 30 min, initial cell load 9.9 × 10^4 CFU/ml",<100 CFU/ml
same,Number of CFUs,"0.125 Oci/ml, t 60 min, initial cell load 9.9 × 10^4 CFU/ml",<100 CFU/ml
same,Number of CFUs,"0.125 Oci/ml, t 24 h, initial cell load 9.9 × 10^4 CFU/ml",<100 CFU/ml
same,Number of CFUs,"0.125 Oci/ml, t 48 h, initial cell load 9.9 × 10^4 CFU/ml",<100 CFU/ml
same,Number of CFUs,"0.125 Oci/ml, t 72 h, initial cell load 9.9 × 10^4 CFU/ml",<100 CFU/ml
same,Number of CFUs,"0.25 Oci/ml, t 0 min, initial cell load 9.9 × 10^4 CFU/ml",1.8 × 10^3 CFU/ml
same,Number of CFUs,"0.25 Oci/ml, t 12 min, initial cell load 9.9 × 10^4 CFU/ml",<100 CFU/ml
same,Number of CFUs,"0.25 Oci/ml, t 30 min, initial cell load 9.9 × 10^4 CFU/ml",<100 CFU/ml
same,Number of CFUs,"0.25 Oci/ml, t 60 min, initial cell load 9.9 × 10^4 CFU/ml",<100 CFU/ml
same,Number of CFUs,"0.25 Oci/ml, t 24 h, initial cell load 9.9 × 10^4 CFU/ml",<100 CFU/ml
same,Number of CFUs,"0.25 Oci/ml, t 48 h, initial cell load 9.9 × 10^4 CFU/ml",<100 CFU/ml
same,Number of CFUs,"0.25 Oci/ml, t 72 h, initial cell load 9.9 × 10^4 CFU/ml",<100 CFU/ml
same,"antimicrobial effect, summary in words",detection limit of the assay 100 CFU/ml,immediate effect at the concentrations tested
OCCc1ccc(O)c(O)c1 [Hydroxytyrosol],Number of CFUs,"0.125 Hyd/ml, t 0 min, initial cell load 1.7 × 10^5 CFU/ml",7.0 × 10^4 CFU/ml
same,Number of CFUs,"0.125 Hyd/ml, t 12 min, initial cell load 1.7 × 10^5 CFU/ml",7.4 × 10^4 CFU/ml
same,Number of CFUs,"0.125 Hyd/ml, t 30 min, initial cell load 1.7 × 10^5 CFU/ml",7.0 × 10^4 CFU/ml
same,Number of CFUs,"0.125 Hyd/ml, t 60 min, initial cell load 1.7 × 10^5 CFU/ml",6.8 × 10^4 CFU/ml
same,Number of CFUs,"0.125 Hyd/ml, t 24 h, initial cell load 1.7 × 10^5 CFU/ml",2.8 × 10^3 CFU/ml
same,Number of CFUs,"0.125 Hyd/ml, t 48 h, initial cell load 1.7 × 10^5 CFU/ml",<100 CFU/ml
same,Number of CFUs,"0.125 Hyd/ml, t 72 h, initial cell load 1.7 × 10^5 CFU/ml",7.1 × 10^2 CFU/ml
same,Number of CFUs,"0.25 Hyd/ml, t 0 min, initial cell load 1.7 × 10^5 CFU/ml",5.7 × 10^4 CFU/ml
same,Number of CFUs,"0.25 Hyd/ml, t 12 min, initial cell load 1.7 × 10^5 CFU/ml",5.1 × 10^4 CFU/ml
same,Number of CFUs,"0.25 Hyd/ml, t 30 min, initial cell load 1.7 × 10^5 CFU/ml",5.9 × 10^4 CFU/ml
same,Number of CFUs,"0.25 Hyd/ml, t 60 min, initial cell load 1.7 × 10^5 CFU/ml",7.4 × 10^4 CFU/ml
same,Number of CFUs,"0.25 Hyd/ml, t 24 h, initial cell load 1.7 × 10^5 CFU/ml",1.4 × 10^3 CFU/ml
same,Number of CFUs,"0.25 Hyd/ml, t 48 h, initial cell load 1.7 × 10^5 CFU/ml",<100 CFU/ml
same,Number of CFUs,"0.25 Hyd/ml, t 72 h, initial cell load 1.7 × 10^5 CFU/ml",<100 CFU/ml
same,Number of CFUs,"0.5 Hyd/ml, t 0 min, initial cell load 1.7 × 10^5 CFU/ml",7.0 × 10^4 CFU/ml
same,Number of CFUs,"0.5 Hyd/ml, t 12 min, initial cell load 1.7 × 10^5 CFU/ml",6.6 × 10^4 CFU/ml
same,Number of CFUs,"0.5 Hyd/ml, t 30 min, initial cell load 1.7 × 10^5 CFU/ml",6.4 × 10^4 CFU/ml
same,Number of CFUs,"0.5 Hyd/ml, t 60 min, initial cell load 1.7 × 10^5 CFU/ml",6.1 × 10^4 CFU/ml
same,Number of CFUs,"0.5 Hyd/ml, t 24 h, initial cell load 1.7 × 10^5 CFU/ml",2.0 × 10^2 CFU/ml
same,Number of CFUs,"0.5 Hyd/ml, t 48 h, initial cell load 1.7 × 10^5 CFU/ml",<100 CFU/ml
same,Number of CFUs,"0.5 Hyd/ml, t 72 h, initial cell load 1.7 × 10^5 CFU/ml",<100 CFU/ml
same,Number of CFUs,"1.0 Hyd/ml, t 0 min, initial cell load 1.7 × 10^5 CFU/ml",6.8 × 10^4 CFU/ml
same,Number of CFUs,"1.0 Hyd/ml, t 12 min, initial cell load 1.7 × 10^5 CFU/ml",7.8 × 10^4 CFU/ml
same,Number of CFUs,"1.0 Hyd/ml, t 30 min, initial cell load 1.7 × 10^5 CFU/ml",7.4 × 10^4 CFU/ml
same,Number of CFUs,"1.0 Hyd/ml, t 60 min, initial cell load 1.7 × 10^5 CFU/ml",7.2 × 10^4 CFU/ml
same,Number of CFUs,"1.0 Hyd/ml, t 24 h, initial cell load 1.7 × 10^5 CFU/ml",<100 CFU/ml
same,Number of CFUs,"1.0 Hyd/ml, t 48 h, initial cell load 1.7 × 10^5 CFU/ml",<100 CFU/ml
same,Number of CFUs,"1.0 Hyd/ml, t 72 h, initial cell load 1.7 × 10^5 CFU/ml",<100 CFU/ml
same,Number of CFUs,"2.0 Hyd/ml, t 0 min, initial cell load 1.7 × 10^5 CFU/ml",7.0 × 10^4 CFU/ml
same,Number of CFUs,"2.0 Hyd/ml, t 12 min, initial cell load 1.7 × 10^5 CFU/ml",8.9 × 10^4 CFU/ml
same,Number of CFUs,"2.0 Hyd/ml, t 30 min, initial cell load 1.7 × 10^5 CFU/ml",5.9 × 10^4 CFU/ml
same,Number of CFUs,"2.0 Hyd/ml, t 60 min, initial cell load 1.7 × 10^5 CFU/ml",5.9 × 10^4 CFU/ml
same,Number of CFUs,"2.0 Hyd/ml, t 24 h, initial cell load 1.7 × 10^5 CFU/ml",<100 CFU/ml
same,Number of CFUs,"2.0 Hyd/ml, t 48 h, initial cell load 1.7 × 10^5 CFU/ml",<100 CFU/ml
same,Number of CFUs,"2.0 Hyd/ml, t 72 h, initial cell load 1.7 × 10^5 CFU/ml",<100 CFU/ml
